Data reported in patent publication US7553667B2, “Regulation of gene expression using chromatin remodelling factors” (Her Majesty the Queen in right of Canada as represented by …, priority 2002, dated 2009).

What was measured:
BnSCL1 gene expression = assay: Quantitative one-step RT-PCR of BnSCL1 expression in treated seedlings; assay type: in vivo, Brassica napus; settings: 10 mM for 24 h, then 2,4-D 10^-6 to 10^3 μM
Method: In exogenous applied auxin treatments, four-leaf stage seedlings grown at 20° C. were treated with a foliar spray containing 1 mM 2,4-D and 50 mM sodium phosphate, pH 7.5. The four leaves were collected at 30 min, 60 min and 180 min after the first foliar application of 2,4-D. For the measurement of response of shoots and roots to auxin, sterilized seeds were germinated on plates in a growth chamber with continuous light at 20° C., and 10 dpg seedlings were supplied with varied concentration of 2,4-D. In the auxin transport inhibition experiments, 9 dpg seedlings were incubated in the medium supplemented with 50 μM NPA dissolved in 0.1% DMSO for 24 h before the 2,4-D treatment. For the HDAC inhibitor treatments, 10 mM sodium butyrate was added onto the growth medium and incubated for 24 h followed by exogenous 2,4-D application at varied concentrations.
Total RNA extracted as described above was treated with Amplification Grade Deoxyribonuclease I (GibcoL BRL) following the manufacture's instructions. The RNA samples were then directly used for reverse transcription prior to amplification without purification. The RT-PCR was quantitatively performed and completed in a one-step reaction using […] One-Step RT-PCR System (GibcoL BRL) as described by Gao et al. (2002). Gene-specific sense and anti-sense primers used to generate a 960 bp fragment of Brassica napus Actin, as an internal standard, were as described in Gao et al., (2002). Gene-specific primers for the generation of BnSCL1, BnIAA1 and BnIAA12 fragments were as follows: […]

[1] = tested on: auxin-inducible GUS expression; settings: seedlings, up to 1 mM for 24 h; cited from earlier work

Structure (SMILES): CCCC(=O)[O-].[Na+] [sodium butyrate]
- BnSCL1 expression profile in shoots and roots in response to auxin after HDAC inhibition (BnSCL1 gene expression): upregulated by auxin at concentration of 1 pM and downregulated by auxin at higher concentrations
- effect on auxin-inducible GUS expression [1]: no effect
